Measured values reported in patent publication US20100298141A1, “SUBSTITUTED PYRIDINE N-OXIDE HERBICIDES” (E. I. DU PONT DE NEMOURS AND COMPANY, priority 2007, published 2010).

Columns and labels:
barnyardgrass = assay: Test A pre-/postemergence greenhouse test; type: in vivo, Echinochloa crus-galli; details: for Plant response rating, Barnyardgrass: 0 to 100 scale where 0 is no effect and 100 is complete control; for Barnyardgrass plant response rating: 0 to 100 scale
How it was run: (§1)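 Two application timings were run side by side in the greenhouse. Before emergence, compound went onto the soil surface of loam–sand pots as a directed spray; after emergence, plants at 2–10 cm and the one- to two-leaf stage were treated. Visual injury versus controls was rated at approximately day ten.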

[1] = system: common (oilseed) sunflower; assay: Test C pre-/postemergence test; type: in vivo, Helianthus annuus; details: for Plant response rating, Sunflower: 31 g ai/ha, scale 0 to 100 (0 no effect, 100 complete control)
How it was run: (§2)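 Compounds in a non-phytotoxic solvent with surfactant applied preemergence to seeded pots and, at the same time, postemergence to plants 2–18 cm tall (1- to 4-leaf stage). Paddy tests: pots flooded to 3 cm, compound applied into the water, depth held throughout.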

kochia = assay: Test C pre-/postemergence test; type: in vivo, Kochia scoparia; details: for Plant response rating, Kochia: 31 g ai/ha, scale 0 to 100 (0 no effect, 100 complete control)
How it was run: as §2

umbrella sedge = assay: Test C flooded paddy test; type: in vivo, Cyperus difformis; details: Flood
How it was run: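 Ratings were visual and made relative to untreated controls after 13 to 15 greenhouse days.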

blackgrass = assay: Test C pre-/postemergence test; type: in vivo, Alopecurus myosuroides; details: for Plant response rating, Blackgrass: 31 g ai/ha, scale 0 to 100 (0 no effect, 100 complete control)
How it was run: as §2

corn = assay: Test C pre-/postemergence test; type: in vivo, Zea mays
How it was run: as §2

soybean = assay: Test C pre-/postemergence test; type: in vivo, Glycine max; details: for Plant response rating, Soybean: 31 g ai/ha, scale 0 to 100 (0 no effect, 100 complete control)
How it was run: as §2

woolly cupgrass = assay: Test C pre-/postemergence test; type: in vivo, Eriochloa villosa; details: for Plant response rating, Cupgrass, Woolly: 31 g ai/ha, scale 0 to 100 (0 no effect, 100 complete control)
How it was run: as §2

cocklebur = assay: Test C pre-/postemergence test; type: in vivo, Xanthium strumarium; details: for Plant response rating, Cocklebur: 31 g ai/ha, scale 0 to 100 (0 no effect, 100 complete control)
How it was run: as §2

yellow nutsedge = assay: Test C pre-/postemergence test; type: in vivo, Cyperus esculentus; details: for Plant response rating, Nutsedge, Yellow: 31 g ai/ha, scale 0 to 100 (0 no effect, 100 complete control)
How it was run: as §2

green foxtail = assay: Test C pre-/postemergence test; type: in vivo, Setaria viridis; details: for Plant response rating, Foxtail, Green: 31 g ai/ha, scale 0 to 100 (0 no effect, 100 complete control)
How it was run: as §2

wheat = assay: Test C pre-/postemergence test; type: in vivo, Triticum aestivum; details: for Plant response rating, Wheat: 31 g ai/ha, scale 0 to 100 (0 no effect, 100 complete control)
How it was run: as §2

morningglory [2] = assay: Test C pre-/postemergence test; type: in vivo, Ipomoea coccinea; details: for Plant response rating, Morningglory: 31 g ai/ha, scale 0 to 100 (0 no effect, 100 complete control)
How it was run: as §2

pigweed = assay: Test C pre-/postemergence test; type: in vivo, Amaranthus retroflexus; details: for Plant response rating, Pigweed: 31 g ai/ha, scale 0 to 100 (0 no effect, 100 complete control)
How it was run: as §2

crabgrass = assay: Test C pre-/postemergence test; type: in vivo, Digitaria sanguinalis; details: for Plant response rating, Crabgrass, Large: 31 g ai/ha, scale 0 to 100 (0 no effect, 100 complete control)
How it was run: as §2

morningglory [3] = assay: Test A pre-/postemergence greenhouse test; type: in vivo, Ipomoea spp.; details: for Plant response rating, Morningglory: 0 to 100 scale where 0 is no effect and 100 is complete control; for Morningglory plant response rating: 0 to 100 scale
How it was run: as §1

Italian ryegrass = assay: Test C pre-/postemergence test; type: in vivo, Lolium multiflorum
How it was run: as §2

[4] = Postemergence, 500 g ai/ha, 0 is no effect, 100 is complete control
[5] = Preemergence, 125 g ai/ha, 0 no effect, 100 complete control
[6] = 62 g ai/ha, Preemergence, scale 0 to 100
[7] = 125 g ai/ha, preemergence, scale 0 (no effect) to 100 (complete control)
[8] = preemergence, 250 g ai/ha, scale 0 (no effect) to 100 (complete control)
[9] = 250 g ai/ha, scale 0 to 100, 0 no effect, 100 complete control, 13 to 15 days
[10] = Preemergence, 31 g ai/ha, scale 0 to 100 (0 no effect, 100 complete control)
[11] = Postemergence, 125 g ai/ha, 0 is no effect, 100 is complete control

Cc1cc[n+]([O-])c(S(=O)(=O)Cc2c(C(F)(F)F)nn(C)c2OCC(F)F)c1 [Compound 94]
Plant response rating, Barnyardgrass (barnyardgrass; Postemergence, 125 g ai/ha): 60
Barnyardgrass plant response rating (barnyardgrass; [4]): 90
Barnyardgrass plant response rating (barnyardgrass; [5]): 70
Plant response rating, Barnyardgrass (barnyardgrass; Preemergence, 500 g ai/ha): 100
Sunflower plant response rating [1, 6]: 0
Sunflower plant response rating [1, 7]: 45
Plant response rating, Sunflower ([1]; Preemergence): 0
Sunflower plant response rating [1, 8]: 80
Kochia plant response rating (kochia; [6]): 100
Kochia plant response rating (kochia; [7]): 100
Plant response rating, Kochia (kochia; Preemergence): 85
Kochia plant response rating (kochia; [8]): 100
Plant response rating, Sedge, Umbrella (umbrella sedge; 62 g ai/ha, scale 0 to 100 (0 no effect, 100 complete control)): 0
Plant response rating, Sedge, Umbrella (umbrella sedge; [9]): 90
Blackgrass plant response rating (blackgrass; [6]): 95
Blackgrass plant response rating (blackgrass; [7]): 100
Plant response rating, Blackgrass (blackgrass; Preemergence): 70
Blackgrass plant response rating (blackgrass; [8]): 100
Corn plant response rating (corn; [6]): 10
Corn plant response rating (corn; [7]): 90
Corn plant response rating (corn; [8]): 95
Soybean plant response rating (soybean; [6]): 30
Soybean plant response rating (soybean; [7]): 30
Plant response rating, Soybean (soybean; Preemergence): 0
Soybean plant response rating (soybean; [8]): 80
Cupgrass, Woolly plant response rating (woolly cupgrass; [6]): 90
Cupgrass, Woolly plant response rating (woolly cupgrass; [7]): 100
Plant response rating, Cupgrass, Woolly (woolly cupgrass; Preemergence): 10
Cupgrass, Woolly plant response rating (woolly cupgrass; [8]): 100
Cocklebur plant response rating (cocklebur; [6]): 0
Cocklebur plant response rating (cocklebur; [7]): 0
Plant response rating, Cocklebur (cocklebur; Preemergence): 0
Cocklebur plant response rating (cocklebur; [8]): 0
Nutsedge, Yellow plant response rating (yellow nutsedge; [6]): 55
Nutsedge, Yellow plant response rating (yellow nutsedge; [7]): 60
Plant response rating, Nutsedge, Yellow (yellow nutsedge; Preemergence): 0
Nutsedge, Yellow plant response rating (yellow nutsedge; [8]): 98
Foxtail, Green plant response rating (green foxtail; [6]): 100
Foxtail, Green plant response rating (green foxtail; [7]): 100
Plant response rating, Foxtail, Green (green foxtail; Preemergence): 98
Foxtail, Green plant response rating (green foxtail; [8]): 100
Wheat plant response rating (wheat; [6]): 60
Wheat plant response rating (wheat; [7]): 80
Plant response rating, Wheat (wheat; Preemergence): 30
Wheat plant response rating (wheat; [8]): 80
Morningglory plant response rating (morningglory [2]; [6]): 90
Morningglory plant response rating (morningglory [2]; [7]): 98
Plant response rating, Morningglory (morningglory [2]; Preemergence): 30
Morningglory plant response rating (morningglory [2]; [8]): 100
Pigweed plant response rating (pigweed; [6]): 90
Pigweed plant response rating (pigweed; [7]): 100
Plant response rating, Pigweed (pigweed; Preemergence): 60
Pigweed plant response rating (pigweed; [8]): 100
Crabgrass, Large plant response rating (crabgrass; [6]): 98
Crabgrass, Large plant response rating (crabgrass; [7]): 100
Plant response rating, Crabgrass, Large (crabgrass; Preemergence): 20
Crabgrass, Large plant response rating (crabgrass; [8]): 100
Plant response rating, Morningglory (morningglory [3]; Postemergence, 125 g ai/ha): 50
Morningglory plant response rating (morningglory [3]; [4]): 60
Morningglory plant response rating (morningglory [3]; [5]): 50
Plant response rating, Morningglory (morningglory [3]; Preemergence, 500 g ai/ha): 100
Ryegrass, Italian plant response rating (Italian ryegrass; [6]): 70
Ryegrass, Italian plant response rating (Italian ryegrass; [7]): 90
Plant response rating, Ryegrass, Italian (Italian ryegrass; [10]): 0
Ryegrass, Italian plant response rating (Italian ryegrass; [8]): 98

Cn1nc(C(F)(F)F)c(C[S+]([O-])c2cc(F)cc[n+]2[O-])c1Cl (racemic) [Compound 42]
Barnyardgrass plant response rating (barnyardgrass; [11]): 70
Barnyardgrass plant response rating (barnyardgrass; [4]): 80
Barnyardgrass plant response rating (barnyardgrass; [5]): 80
Plant response rating, Barnyardgrass (barnyardgrass; Preemergence, 500 g ai/ha): 100
Sunflower plant response rating [1, 6]: 0
Sunflower plant response rating [1, 7]: 30
Plant response rating, Sunflower ([1]; Preemergence): 0
Sunflower plant response rating [1, 8]: 80
Kochia plant response rating (kochia; [6]): 100
Kochia plant response rating (kochia; [7]): 100
Plant response rating, Kochia (kochia; Preemergence): 100
Kochia plant response rating (kochia; [8]): 100
Plant response rating, Sedge, Umbrella (umbrella sedge; 31 g ai/ha, scale 0 to 100 (0 no effect, 100 complete control)): 80
Plant response rating, Sedge, Umbrella (umbrella sedge; 62 g ai/ha, scale 0 to 100, 0 no effect, 100 complete control, 13 to 15 days): 85
Plant response rating, Sedge, Umbrella (umbrella sedge; 125 g ai/ha, scale 0 to 100, 0 no effect, 100 complete control, 13 to 15 days): 90
Plant response rating, Sedge, Umbrella (umbrella sedge; [9]): 95
Blackgrass plant response rating (blackgrass; [6]): 70
Blackgrass plant response rating (blackgrass; [7]): 95
Plant response rating, Blackgrass (blackgrass; Preemergence): 70
Blackgrass plant response rating (blackgrass; [8]): 98
Corn plant response rating (corn; [6]): 25
Corn plant response rating (corn; [7]): 60
Plant response rating, Corn (corn; [10]): 0
Corn plant response rating (corn; [8]): 80
Soybean plant response rating (soybean; [6]): 0
Soybean plant response rating (soybean; [7]): 40
Plant response rating, Soybean (soybean; Preemergence): 0
Soybean plant response rating (soybean; [8]): 40
Cupgrass, Woolly plant response rating (woolly cupgrass; [6]): 55
Cupgrass, Woolly plant response rating (woolly cupgrass; [7]): 85
Plant response rating, Cupgrass, Woolly (woolly cupgrass; Preemergence): 35
Cupgrass, Woolly plant response rating (woolly cupgrass; [8]): 90
Cocklebur plant response rating (cocklebur; [6]): 0
Cocklebur plant response rating (cocklebur; [7]): 0
Plant response rating, Cocklebur (cocklebur; Preemergence): 0
Cocklebur plant response rating (cocklebur; [8]): 50
Nutsedge, Yellow plant response rating (yellow nutsedge; [6]): 60
Nutsedge, Yellow plant response rating (yellow nutsedge; [7]): 85
Plant response rating, Nutsedge, Yellow (yellow nutsedge; Preemergence): 0
Nutsedge, Yellow plant response rating (yellow nutsedge; [8]): 95
Foxtail, Green plant response rating (green foxtail; [6]): 100
Foxtail, Green plant response rating (green foxtail; [7]): 100
Plant response rating, Foxtail, Green (green foxtail; Preemergence): 98
Foxtail, Green plant response rating (green foxtail; [8]): 100
Wheat plant response rating (wheat; [6]): 0
Wheat plant response rating (wheat; [7]): 10
Plant response rating, Wheat (wheat; Preemergence): 0
Wheat plant response rating (wheat; [8]): 70
Morningglory plant response rating (morningglory [2]; [6]): 50
Morningglory plant response rating (morningglory [2]; [7]): 50
Plant response rating, Morningglory (morningglory [2]; Preemergence): 0
Morningglory plant response rating (morningglory [2]; [8]): 90
Pigweed plant response rating (pigweed; [6]): 100
Pigweed plant response rating (pigweed; [7]): 100
Plant response rating, Pigweed (pigweed; Preemergence): 100
Pigweed plant response rating (pigweed; [8]): 100
Crabgrass, Large plant response rating (crabgrass; [6]): 100
Crabgrass, Large plant response rating (crabgrass; [7]): 100
Plant response rating, Crabgrass, Large (crabgrass; Preemergence): 95
Crabgrass, Large plant response rating (crabgrass; [8]): 100
Morningglory plant response rating (morningglory [3]; [11]): 40
Morningglory plant response rating (morningglory [3]; [4]): 90
Morningglory plant response rating (morningglory [3]; [5]): 30
Plant response rating, Morningglory (morningglory [3]; Preemergence, 500 g ai/ha): 90
Ryegrass, Italian plant response rating (Italian ryegrass; [6]): 55
Ryegrass, Italian plant response rating (Italian ryegrass; [7]): 80
Ryegrass, Italian plant response rating (Italian ryegrass; [8]): 85
